Measurements taken from patent US20250228834A1, “PHARMACEUTICAL COMPOSITION FOR THE TREATMENT OF COLON AND LUNG CANCER” (HEPAREGENIX GMBH, priority 2022, published 2025).

What was measured:
Type in all cases: cell-based
[1] = system: KRASG12C mutant lung cancer cells (H358, H2122); assay: Colony formation matrix (Assay Method A), Example 3; details: 10 days, FIG. 3
Experimental: (§1) • KRAS mutant lung and colorectal cancer cells: • Lung: H358 (G12C) (ATCC No: CRL-5807) • H2122 (G12C) (ATCC No: CRL-5985) • Colon:DLD1 (G13D) (ATCC No: CCL-221) • HCT 116 (G13D) (ATCC No: CCL-247)
(§2) All cell lines were cultured in RPMI 1640 medium (Gibco) supplemented with 10% fetal bovine serum, 1% glutamine and penicillin-streptomycin (Gibco) at 37° C. and 5% CO2. Mycoplasma contamination was excluded via a PCR-based method.
(§3) Cell lines were cultured and seeded into 24-well plates. After 24 h incubation, drugs were added using the HP D300 Digital Dispenser. Medium and drugs were refreshed twice a week for 10-14 days. After this, cells were fixed with 4% formaldehyde in PBS and stained with 0.1% crystal violet in water. The quantification of the colony formation matrixes (crystal violet staining per well) was assessed using ImageJ software.
According to Assay Method A cells (H358, H2122) were treated with compound (A), AMG510 or their combination at the indicated concentrations (cf. FIG. 3). Drugs were refreshed twice a week. The cells were fixed and stained after 10 days.

[2] = system: KRAS mutant lung and colorectal cancer cells (H358, H2122, DLD1, HCT 116); assay: Colony formation matrix (Assay Method A)
Experimental: as §1, §2, §3
According to Assay Method A cells (H358, H2122, DLD1, HCT 116) were treated with compound (A), Trametinib or their combination at the indicated concentrations (cf. FIG. 1). Drugs were refreshed twice a week. The cells were fixed and stained after 10 days.
According to Assay Method A cells (H358, DLD1, HCT 116) were treated with compound (A), SCH772984 or their combination at the indicated concentrations (cf. FIG. 2). Drugs were refreshed twice a week. The cells were fixed and stained after 10 days.

[3] = system: KRAS G12C mutant cancer cell line H358; assay: Colony formation matrix (Assay Method A), Example 4; details: compound (A) combined with RMC4550, 10 days, FIG. 4
Experimental: as §1, §2, §3
According to Assay Method A H358 cells were treated with compound (A), RMC4550 or their combination at the indicated concentrations (cf. FIG. 4). Drugs were refreshed twice a week. The cells were fixed and stained after 10 days.

[4] = system: Lung Cancer Cells; assay: IncuCyte Caspase 3/7 apoptosis assay (Assay Method C); details: compound (A) in combination with Trametinib, RMC4550 or AMG510; first 72 hours; FIG. 5B
Experimental: as §2
For IncuCyte proliferation assays and Caspase 3/7 assays, cells were seeded in 96-well plates. After 24 h incubation, drugs and the IncuCyte® Caspase-3/7 green apoptosis assays reagent (Essen Bioscience 4440) were added using the HP D300 Digital Dispenser and the plates were placed in the IncuCyte®. Culture media and drugs were refreshed twice a week for 10 days. Cells were imaged every 4 hours in the IncuCyte ZOOM (Essen Bioscience). Phase-contrast images were collected and analyzed to detect cell proliferation based on cell confluence. Apoptosis was measured based on green fluorescent staining of apoptotic cells using the IncuCyte® Caspase-3/7 green apoptosis assay reagent (Essen Bioscience 4440).
According to assay method C cells were treated with compound (A) as component a) and RMC4550, AMG510, or Trametinib as component b) or combinations of component a) and either one of component b) at the indicated concentrations. Additionally, during the first treatment, the IncuCyte® Caspase-3/7 green apoptosis assay reagent was added to measure apoptosis for the first 72 hours. […] Confluence (left) and Caspase 3/7 activity was measured by the IncuCyte®. […]

[5] = system: Lung Cancer Cells; assay: IncuCyte proliferation assay (Assay Method C), confluence
Experimental: as §2
Drugs were refreshed twice a week.

Compound: CCCS(=O)(=O)Nc1c(F)ccc(C(=O)c2c[nH]c3ncc(-c4cnc(C5CC5)nc4)cc23)c1F [compound (A), N-(3-(5-(2-cyclopropyl-pyrimidin-5-yl)-1H-pyrrolo[2,3-b]pyridine-3-carbonyl)-2,6-difluorophenyl)-propane-1-sulfonamide]
- toxicity compared to the single agent effect of AMG510 ([1]; addition of compound (A) to AMG510, KRAS G12C mutants H358, H2122): strongly increased the toxicity
- synergy with AMG510 in colony formation matrix ([1]; compound (A) combined with AMG510, H358, H2122): strong synergy
- synergy with MEK, ERK, KRAS and SHP2 inhibition, overall conclusion ([2]; compound (A) combined with MEK, ERK, KRAS or SHP2 inhibitor, all obtained results): strongly synergizes
- synergy with ERK inhibition in colony formation matrix ([2]; compound (A) combined with SCH772984, H358, DLD1, HCT 116, 10 days, FIG. 2): Synergizes
- toxicity in colony formation matrix, single drug ([2]; single drug, KRAS mutant cancer cells (H358, H2122, DLD1, HCT 116), fixed and stained after 10 days, FIG. 1): did not show sensitivity
- synergy with SHP2 inhibition in colony formation matrix [3]: Synergizes
- apoptosis (Caspase 3/7 activity) [4]: Induces Apoptosis
- cell proliferation (confluence) ([5]; compound (A) in combination with Trametinib, RMC4550 or AMG510, FIG. 5A): Abrogates Cell Proliferations
- synergistic effect of combination (confluence and Caspase 3/7 activity) ([5]; compound (A) with MEK, SHP2 and KRASG12C inhibitors, example 5, FIGS. 5A and 5B): synergistic effect
